Laboratory results as given in ChEMBL document CHEMBL1138435, “A novel antibacterial iridoid and triterpene from Caiophora coronata” (2003).
Converted amounts (≈) assume the structure as drawn. The source made the active and inactive calls. The calls are words filed in the database; no cut-off is given here.

Key:
Staphylococcus aureus [1] = assay: Antimicrobial activity against methicillin-sensitive Staphylococcus aureus 375 after 18 hrs by twofold serial microbroth dilution method; format: functional; settings: Staphylococcus aureus, 375, 18 h
Staphylococcus aureus [2] = assay: Antimicrobial activity against methicillin-resistant Staphylococcus aureus 310 after 18 hrs by twofold serial microbroth dilution method; format: functional; settings: Staphylococcus aureus, 310, 18 h
Bacillus subtilis = assay: Antimicrobial activity against Bacillus subtilis 327 after 18 hrs by twofold serial microbroth dilution method; format: functional; settings: Bacillus subtilis, 327, 18 h
Enterococcus faecium = assay: Antimicrobial activity against vancomycin-resistant Enterococcus faecium 379 after 18 hrs by twofold serial microbroth dilution method; format: functional; settings: Enterococcus faecium, 379, 18 h
Escherichia coli [3] = assay: Antimicrobial activity against Escherichia coli 442 after 18 hrs by twofold serial microbroth dilution method; format: functional; settings: Escherichia coli, 442, 18 h
Escherichia coli [4] = assay: Antimicrobial activity against Escherichia coli 389 after 18 hrs by twofold serial microbroth dilution method; format: functional; settings: Escherichia coli, 389, 18 h
Candida albicans = assay: Antimicrobial activity against Candida albicans 54 after 18 hrs by agar diffusion method; format: functional
Escherichia coli [5] = assay: Antimicrobial activity against Escherichia coli 442 after 18 hrs by agar diffusion method; format: functional, organism-based

| Structure (SMILES) | MIC (Staphylococcus aureus [1]) | MIC (Staphylococcus aureus [2]) | MIC (Bacillus subtilis) | MIC (Enterococcus faecium) | MIC (Escherichia coli [3]) | MIC (Escherichia coli [4]) | inhibition zone (IZ) (Candida albicans) | inhibition zone (IZ) (Escherichia coli [5]) | MIC (Candida albicans; Candida albicans, 54, 18 h) |
| --- | --- | --- | --- | --- | --- | --- | --- | --- | --- |
| CO[C@H]1OC(=O)[C@H](C)[C@@H]2[C@@H]1[C@@H](CO)C[C@@H]2O [CAIOPHORAENIN] | > 128 µg/mL | > 128 µg/mL | > 128 µg/mL | > 128 µg/mL | > 128 µg/mL | > 128 µg/mL | inactive | inactive | – |
| C[C@@H]1[C@@H]2COC(=O)C[C@H]2C[C@@H]1O [ISOBOONEIN] | > 128 µg/mL | > 128 µg/mL | > 128 µg/mL | > 128 µg/mL | > 128 µg/mL | > 128 µg/mL | inactive | inactive | – |
| CC1(C)S[C@@H]2[C@H](NC(=O)Cc3ccccc3)C(=O)N2[C@H]1C(=O)O [PENICILLIN G] | 0.06 µg/mL (≈ 0.179 µM) | 128 µg/mL (≈ 383 µM) | 32 µg/mL (≈ 95.7 µM) | 32 µg/mL (≈ 95.7 µM) | – | 4 µg/mL (≈ 12 µM) | – | – | > 128 µg/mL |
| C[C@H]1[C@H](C)CC[C@]2(C)CC[C@]3(C(=O)O)C(=CC[C@@H]4[C@@]5(C)[C@H](O)C[C@H](O)C(C)(C)[C@@H]5CC[C@]43C)[C@H]12 | 4 µg/mL (≈ 8.46 µM) | 4 µg/mL (≈ 8.46 µM) | 2 µg/mL (≈ 4.23 µM) | 4 µg/mL (≈ 8.46 µM) | – | 16 µg/mL (≈ 33.8 µM) | inactive | inactive | – |
